{"source": "patent US20240238274A1", "about": "“INHIBITORS OF UBIQUITIN SPECIFIC PEPTIDASE 22 (USP22) AND USES THEREOF FOR TREATING DISEASE AND DISORDERS” (Northwestern University, priority 2021, published 2024)", "key": {"naïve mice": {"system": "naïve mice", "experiment": "In vivo toxicity and Treg phenotype in naïve mice", "method": "D, Graphical representation of Foxp3 MFI upon Usp22i-S02 administration (n=5). E, Tumor growth curve of LLC1 cells subcutaneously injected in the flank of WT mice with or without the addition of 20 mg/kg/time of the Usp22 inhibitor starting at day 15, in 100 μL of oil (n=4). F-G, Representative flow cytometry plot and graphical representation of % infiltration of CD4+ and CD8+ T cells within the tumor (n=4). […] I, MFI of itTreg suppressive markers (n=3-4). […] B, D-E, G, H-I Two-way ANOVA with multiple comparisons between rows was performed to determine statistical significance. J, Unpaired two tailed T test was performed to determine significance. All data are presented as mean±stdev. NS, not significant. *P<0.05, **P<0.01, ***P<0.001, ****P<0.0001.\nA, Body weight of Usp22i-S02 treated mice verses DMSO treated controls over the course of treatment (n=4). […] B, Percent of cell populations in naïve mice treated with Usp22i-S02 relative to DMSO control (n=3-4). […] E, Percent Annexin+PI+ T cells gates on CD45+ cells in naïve mice treated with Usp22i-S02 relative to DMSO control (n=4). F-H, Organ toxicity panel (VetScan VS2 Comprehensive Diagnostic Rotor lot 1061AA2) of naïve mice treated with Usp22i-S02 relative to DMSO control (n=2-3). […] J, Weights of resected tumors at day 16 from I (n=10). K-L, Representative flow plot and graphical representation of infiltrating T cells gated on CD45+ cells (n=5). […] Q, Percent of intratumoral Treg cells from mice treated with Usp22i-S02 verses DMSO control, gated on CD4+Foxp3+ from mice (n=5). A-E, I and L, Two-way ANOVA with Sidaks's multiple comparisons between rows relative to control was performed to determine statistical significance. F-H, J, and M-Q, Two-tailed unpaired t-test was performed to determine statistical significance. All data are presented as mean±stdev. NS, not significant. *P<0.05, **P<0.01, ***P<0.001, ****P<0.0001.\nAn important aspect of a potential immunotherapeutic is its antitumor functionality paired with low immune toxicity. To determine the toxicity of Usp22i-S02 in vivo, we first determined its effects in naïve mice."}, "LLC1 tumors": {"system": "LLC1 tumors", "experiment": "Established LLC1 tumors in Rag−/− mice", "format": "in vivo", "details": "Rag−/− mice with established LLC1 tumors, treated 3 days", "method": "FIG. 17: Usp22i-S02 inhibits tumor growth in vitro and in vivo. A, In vitro counts of LLC1 after treatment with Usp22i-S02 under various concentrations for 24 hours (n=2). B, In vitro viability of LLC1 after treatment with Usp22i-S02 under various concentrations for 24 hours (n=2). C, In vitro relative growth of LLC1 cells treated with 10 ug/ml of Usp22i-S02 relative to DMSO treated control for 7 days via OD600 (n=4). D, Growth curve of 1 million subcutaneously injected LLC1 cells into RAG−/− mice treated for 3 days Usp22i-S02 relative to DMSO control injections at day 15 of tumor growth (n=4). C-D, Two-way ANOVA with Sidaks's multiple comparisons between rows relative to control was performed to determine statistical significance. All data are presented as mean±stdev. NS, not significant. *P<0.05, **P<0.01, ***P<0.001, ****P<0.0001.\nAs Usp22 is also an important oncogene (43, 44), we were interested in the potential dual-therapeutic function of Usp22i-S02."}, "[1]": {"system": "Foxp3 in human Treg cells", "experiment": "Foxp3 MFI of human Treg cells treated with Usp22i-S02", "format": "cell-based", "details": "low doses", "method": "FIG. 15: Usp22i-S02 halts Usp22-mediated Foxp3 deubiquitination. A, Graphical representation of Foxp3 MFI change in WT versus 22KO iTreg cells treated with various doses of Usp22i-S02 (n=3). B, Representative histogram of Foxp3 MFI level in iTreg cells as Usp22 inhibitor concentration increases from 0-20 μg/mL. C, Cell survival of iTreg cells treated with various doses of Usp22i-S02 (n=3). D, FOXP3 and USP22 protein level in WT and 22KO mice treated with 10 μg/mL Usp22i-S02. E-F, Graphical and representative data of Foxp3 MFI of human Treg cells treated with various doses of Usp22i-S02 (n=3). G, Graphical representation of Foxp3 MFI in WT, Usp21-null, and Usp22-null Treg cells treated with Usp22i-S02 at 10 μg/mL (n=3). H, FOXP3 and USP22 protein degradation of cycloheximide (10 μg/mL) treated iTreg cells with or without the addition of 10 μg/mL of Usp22i-S02. I-J, Endogenous DUB assay IP in iTreg cells of USP22 with FOXP3 under increasing concentrations of Usp22i-S02. K, Foxp3 mRNA level in iTreg cells as Usp22 inhibitor concentration increases from 0-20 μg/mL (n=3). L, FOXP3 and USP22 level in WT iTreg cells with or without 20 μg/mL Usp22 inhibitor treated with 20 μM MG132. M, Graphical representation of the percentage of decrease of Foxp3 MFI in either WT or Usp22-null nTreg cells placed in low glucose conditions with or without the addition of 10 μg/mL of Usp22i-S02 (n=7-8). […]"}}}
{"compound": "N#Cc1c2c(c(Nc3ccccc3)n3c1nc1ccccc13)CCCC2", "note": "[Chemical S02, 11-anilino-7,8,9,10-tetrahydro-benzimidazo [1,2-b] isoquinoline-6-carbonitrile]", "values": [{"measurement": "FOXP3 MFI in Treg cells from the spleen and lymph nodes", "setting": "naïve mice; WT mice, 20 mg/kg in vivo", "value": "significant drop in FOXP3 MFI"}, {"measurement": "Treg cell death", "setting": "naïve mice; naïve mice vs DMSO control", "value": "significantly increased"}, {"measurement": "organ toxicity (comprehensive tissue panel)", "setting": "naïve mice; naïve mice vs DMSO-treated control", "value": "no organ toxicity differences"}, {"measurement": "weights, B cell and Teff cell percentages and proliferation, Teff cell activation", "setting": "naïve mice; naïve mice vs DMSO-treated control, 10 mg/kg twice a day for 3 days", "value": "little alteration"}, {"measurement": "tumor growth", "setting": "LLC1 tumors", "value": "small but statistically significant decrease in tumor growth"}, {"measurement": "Foxp3 MFI", "setting": "[1]", "value": "significantly decreased Foxp3 MFI"}, {"measurement": "cell viability", "setting": "[1]", "value": "little effect to cell viability"}]}
